# Measured values: ChEMBL document CHEMBL1201862, “PubChem BioAssay data set” (2004)
#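 A five-concentration, 48-hour dose response in 96-well plates underlies each endpoint, interpolated linearly between surrounding concentrations. GI50 = concentration required for 50% inhibition of growth.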 Active and inactive are the calls of the source. Rule as the data show it: active = GI50 up to about 1.1 µM and inactive = higher.
# Experiments:
# Test in all cases: inhibition of tumour cell growth, NCI panel, 48 h
# UACC-257 = system: UACC-257
# DMS-114 = system: DMS-114
# HT-29 = system: HT-29
# TK-10 = system: TK-10
# SK-MEL-2 = system: SK-MEL-2
# SK-OV-3 = system: SK-OV-3
# NCI-H522 = system: NCI-H522
# KM-20L2 = system: KM-20L2
# A549 = system: A549
# XF498 = system: XF498
# SNB-75 = system: SNB-75
# Malme-3M = system: Malme-3M
# UACC-62 = system: UACC-62
# SN12C = system: SN12C
# DLD-1 = system: DLD-1
# CCRF-CEM = system: CCRF-CEM
# HCC 2998 = system: HCC 2998
# NCI-H23 = system: NCI-H23
# SF-539 = system: SF-539
# HCT-15 = system: HCT-15
# IGROV-1 = system: IGROV-1
# RPMI-8226 = system: RPMI-8226
# EKVX = system: EKVX
# LXFL 529 = system: LXFL 529
# COLO 205 = system: COLO 205
# SNB-78 = system: SNB-78
# HOP-92 = system: HOP-92
# 786-0 = system: 786-0
# U-251 = system: U-251
# SNB-19 = system: SNB-19
# CAKI-1 = system: CAKI-1
# M19-MEL = system: M19-MEL
# HL-60 = system: HL-60
# SF-268 = system: SF-268
# LOX IMVI = system: LOX IMVI
# ACHN = system: ACHN
# SK-MEL-28 = system: SK-MEL-28
# K562 = system: K562
# SW-620 = system: SW-620
# NCI-H460 = system: NCI-H460
# KM12 = system: KM12
# HOP-62 = system: HOP-62
# OVCAR-5 = system: OVCAR-5
# SK-MEL-5 = system: SK-MEL-5
# OVCAR-4 = system: OVCAR-4
# SR = system: SR
# OVCAR-8 = system: OVCAR-8
# M14 = system: M14
# NCI-H226 = system: NCI-H226
# HCT-116 = system: HCT-116
# OVCAR-3 = system: OVCAR-3
# UO-31 = system: UO-31
# SF-295 = system: SF-295
# MOLT-4 = system: MOLT-4
# RXF 393 = system: RXF 393
# DMS-273 = system: DMS-273
# A498 = system: A498
smiles,measurement,setting,value
Cc1nc(N)nc(N)c1CCCc1ccccc1,GI50,UACC-257,12.7 µM (inactive)
same,GI50,DMS-114,4.48 µM (inactive)
same,GI50,HT-29,2.15 µM (inactive)
same,GI50,TK-10,> 100 µM (inactive)
same,GI50,SK-MEL-2,7.98 µM (inactive)
same,GI50,SK-OV-3,57.5 µM (inactive)
same,GI50,NCI-H522,7.18 µM (inactive)
same,GI50,KM-20L2,7.31 µM (inactive)
same,GI50,A549,1.49 µM (inactive)
same,GI50,XF498,35.7 µM (inactive)
same,GI50,SNB-75,38.3 µM (inactive)
same,GI50,Malme-3M,1.73 µM (inactive)
same,GI50,UACC-62,5.55 µM (inactive)
same,GI50,SN12C,3.65 µM (inactive)
same,GI50,DLD-1,12.1 µM (inactive)
same,GI50,CCRF-CEM,6.25 µM (inactive)
same,GI50,HCC 2998,12.5 µM (inactive)
same,GI50,NCI-H23,10.3 µM (inactive)
same,GI50,SF-539,13.9 µM (inactive)
same,GI50,HCT-15,2.87 µM
same,GI50,IGROV-1,6.11 µM (inactive)
same,GI50,RPMI-8226,33.3 µM (inactive)
same,GI50,EKVX,15.2 µM (inactive)
same,GI50,LXFL 529,8.05 µM (inactive)
same,GI50,COLO 205,22.8 µM (inactive)
same,GI50,SNB-78,32.1 µM (inactive)
same,GI50,HOP-92,11.6 µM (inactive)
same,GI50,786-0,3.66 µM (inactive)
same,GI50,U-251,5.36 µM (inactive)
same,GI50,SNB-19,11.2 µM (inactive)
same,GI50,CAKI-1,9.25 µM (inactive)
same,GI50,M19-MEL,9.95 µM (inactive)
same,GI50,HL-60,6.35 µM (inactive)
same,GI50,SF-268,5.4 µM (inactive)
same,GI50,LOX IMVI,3.18 µM (inactive)
same,GI50,ACHN,4.35 µM (inactive)
same,GI50,SK-MEL-28,15.2 µM (inactive)
same,GI50,K562,0.552 µM (active)
same,GI50,SW-620,4.57 µM (inactive)
same,GI50,NCI-H460,3.47 µM (inactive)
same,GI50,KM12,28.6 µM (inactive)
same,GI50,HOP-62,12.1 µM (inactive)
same,GI50,OVCAR-5,15.9 µM (inactive)
same,GI50,SK-MEL-5,4.94 µM (inactive)
same,GI50,OVCAR-4,18.4 µM (inactive)
same,GI50,SR,4.07 µM (inactive)
same,GI50,OVCAR-8,7.59 µM (inactive)
same,GI50,M14,4.78 µM (inactive)
same,GI50,NCI-H226,97.7 µM (inactive)
same,GI50,HCT-116,2.7 µM (inactive)
same,GI50,OVCAR-3,18.6 µM (inactive)
same,GI50,UO-31,20.8 µM (inactive)
same,GI50,SF-295,5.18 µM (inactive)
same,GI50,MOLT-4,4.07 µM (inactive)
Sc1nnc(COc2ccc(Cl)cc2Cl)[nH]1,GI50,UACC-257,> 100 µM (inactive)
same,GI50,DMS-114,> 100 µM (inactive)
same,GI50,HT-29,> 100 µM (inactive)
same,GI50,TK-10,> 100 µM (inactive)
same,GI50,SK-MEL-2,> 100 µM (inactive)
same,GI50,KM-20L2,> 100 µM (inactive)
same,GI50,A549,> 100 µM (inactive)
same,GI50,XF498,> 100 µM (inactive)
same,GI50,SNB-75,> 100 µM (inactive)
same,GI50,RXF 393,> 100 µM (inactive)
same,GI50,Malme-3M,> 100 µM (inactive)
same,GI50,UACC-62,> 100 µM (inactive)
same,GI50,SN12C,> 100 µM (inactive)
same,GI50,DLD-1,> 100 µM (inactive)
same,GI50,CCRF-CEM,> 100 µM (inactive)
same,GI50,HCC 2998,> 100 µM (inactive)
same,GI50,NCI-H23,> 100 µM (inactive)
same,GI50,SF-539,> 100 µM (inactive)
same,GI50,HCT-15,> 100 µM
same,GI50,IGROV-1,> 100 µM (inactive)
same,GI50,RPMI-8226,> 100 µM (inactive)
same,GI50,EKVX,> 100 µM (inactive)
same,GI50,LXFL 529,> 100 µM (inactive)
same,GI50,SNB-78,> 100 µM (inactive)
same,GI50,HOP-92,> 100 µM (inactive)
same,GI50,DMS-273,> 100 µM (inactive)
same,GI50,786-0,> 100 µM (inactive)
same,GI50,U-251,> 100 µM (inactive)
same,GI50,SNB-19,> 100 µM (inactive)
same,GI50,A498,> 100 µM (inactive)
same,GI50,CAKI-1,> 100 µM (inactive)
same,GI50,M19-MEL,> 100 µM (inactive)
same,GI50,HL-60,26.4 µM (inactive)
same,GI50,SF-268,> 100 µM (inactive)
same,GI50,LOX IMVI,> 100 µM (inactive)
same,GI50,ACHN,> 100 µM (inactive)
same,GI50,SK-MEL-28,> 100 µM (inactive)
same,GI50,K562,> 100 µM (inactive)
same,GI50,SW-620,> 100 µM (inactive)
same,GI50,NCI-H460,> 100 µM (inactive)
same,GI50,OVCAR-5,> 100 µM (inactive)
same,GI50,SK-MEL-5,> 100 µM (inactive)
same,GI50,OVCAR-4,> 100 µM (inactive)
same,GI50,SR,> 100 µM (inactive)
same,GI50,OVCAR-8,> 100 µM (inactive)
same,GI50,M14,> 100 µM (inactive)
same,GI50,NCI-H226,> 100 µM (inactive)
same,GI50,HCT-116,> 100 µM (inactive)
same,GI50,OVCAR-3,> 100 µM (inactive)
same,GI50,UO-31,> 100 µM (inactive)
same,GI50,SF-295,> 100 µM (inactive)
same,GI50,MOLT-4,> 100 µM (inactive)
CN(CCN(C)C(=O)CCn1ccc(=O)[nH]c1=O)C(=O)CCn1ccc(=O)[nH]c1=O,GI50,DMS-114,> 100 µM (inactive)
same,GI50,HT-29,> 100 µM (inactive)
same,GI50,TK-10,> 100 µM (inactive)
same,GI50,SK-MEL-2,> 100 µM (inactive)
same,GI50,NCI-H522,> 100 µM (inactive)
same,GI50,KM-20L2,> 100 µM (inactive)
same,GI50,A549,> 100 µM (inactive)
same,GI50,XF498,> 100 µM (inactive)
same,GI50,SNB-75,22.4 µM (inactive)
same,GI50,RXF 393,> 100 µM (inactive)
same,GI50,Malme-3M,> 100 µM (inactive)
same,GI50,UACC-62,> 100 µM (inactive)
same,GI50,SN12C,> 100 µM (inactive)
same,GI50,CCRF-CEM,> 100 µM (inactive)
same,GI50,HCC 2998,> 100 µM (inactive)
same,GI50,NCI-H23,> 100 µM (inactive)
same,GI50,SF-539,> 100 µM (inactive)
same,GI50,HCT-15,> 100 µM
same,GI50,IGROV-1,> 100 µM (inactive)
same,GI50,RPMI-8226,> 100 µM (inactive)
same,GI50,EKVX,> 100 µM (inactive)
same,GI50,LXFL 529,> 100 µM (inactive)
same,GI50,COLO 205,> 100 µM (inactive)
same,GI50,SNB-78,> 100 µM (inactive)
same,GI50,DMS-273,> 100 µM (inactive)
same,GI50,786-0,> 100 µM (inactive)
same,GI50,U-251,> 100 µM (inactive)
same,GI50,SNB-19,> 100 µM (inactive)
same,GI50,M19-MEL,> 100 µM (inactive)
same,GI50,HL-60,> 100 µM (inactive)
same,GI50,SF-268,> 100 µM (inactive)
same,GI50,LOX IMVI,> 100 µM (inactive)
same,GI50,ACHN,> 100 µM (inactive)
same,GI50,SK-MEL-28,> 100 µM (inactive)
same,GI50,K562,> 100 µM (inactive)
same,GI50,SW-620,> 100 µM (inactive)
same,GI50,NCI-H460,> 100 µM (inactive)
same,GI50,KM12,> 100 µM (inactive)
same,GI50,HOP-62,> 100 µM (inactive)
same,GI50,OVCAR-5,> 100 µM (inactive)
same,GI50,SK-MEL-5,> 100 µM (inactive)
same,GI50,OVCAR-4,> 100 µM (inactive)
same,GI50,SR,> 100 µM (inactive)
same,GI50,OVCAR-8,> 100 µM (inactive)
same,GI50,M14,> 100 µM (inactive)
same,GI50,NCI-H226,> 100 µM (inactive)
same,GI50,HCT-116,> 100 µM (inactive)
same,GI50,OVCAR-3,> 100 µM (inactive)
same,GI50,UO-31,> 100 µM (inactive)
same,GI50,SF-295,> 100 µM (inactive)
same,GI50,MOLT-4,> 100 µM (inactive)
